Where two headings read alike, the source gives them in different places.
How the values were obtained:
healthy volunteers [1] = experiment: clinical
Experimental: Safety observations included vital signs, physical examination, clinical laboratory tests, ECGs, and adverse event reporting. Blood and urine samples were collected pre-dose and for 72 hours post-dose to assess the pharmacokinetics.

rats = settings: 6 months, 30, 100, 300 mg/kg
minipigs [2] = tested on: minipigs
minipigs [3] = settings: 6 months
minipigs [4] = settings: ongoing 9-month study past month 7
healthy volunteers [5] = tested on: healthy volunteers
Experimental: (§1) The first panel was administered a singe dose of 50 mg, followed 48 hours later by 4½ days of multiple dosing (twice daily) at 50 mg Q12 hours. The second panel was administered a singe dose of 100 mg, followed 48 hours later by 4½ days of multiple dosing (twice daily) at 100 mg Q12 hours. Safety observations included vital signs, physical examination, clinical laboratory tests, ECGs, and adverse event reporting. Blood samples were collected pre-dose on Day 1 and serially for 48 hours post-dose to assess the single-dose pharmacokinetics.

in vivo [6] = settings: male, dog, po
Experimental: (§2) Three groups of four non-naïve male beagle dogs were used in the study. […] Doses were administered orally by gavage and clinical observations were taken continuously following dosing: hourly for the first four hours, and then twice daily cage-side observations for the duration of the inter-dose or post-dose interval. Observations were made of clinical signs, mortality, injury and availability of food and water. Animals were fasted for 24 hr prior to dosing. Dogs in each group were exposed to only one drug, or the combination; each dose was administered only once, with a subsequent dose administered after a recovery period of 4 days.

in vivo [7] = settings: both, minipig
in vivo [8] = settings: both, minipig; remark: listed apart in the source
clinical = settings: human, plasma
Experimental: as §1

[9] = Day 1, 100 mg oral dose, fasted
[10] = Day 7, 50 mg Q12H on Days 3 through 6 and a single dose on Day 7, fasted
[11] = Day 7, 100 mg Q12H on Days 3 through 6 and a single dose on Day 7, fasted

Experimental for male beagle dogs: as §2

CCCN[C@@H]1CCc2nc(N)sc2C1 [(R)-pramipexole, (6R)-4,5,6,7-tetrahydro-N6-propyl-2,6-benzothiazole-diamine]
time of maximum concentration post-dose (healthy volunteers [1]; single oral 50, 150, 300 mg): approximately 2 hours | safety and tolerability (healthy volunteers [1]; single oral doses of 50, 150, 300 mg): safe and well-tolerated | human equivalence dose of the MTD (male beagle dogs; based on dog data, 70 kg human subject): about 3,000 mg | observable effects in dogs (male beagle dogs; dog, in vivo): no observable effects | functional separation between the (S)- and (R)-enantiomers (male beagle dogs; male, beagle, dog, in vivo, 4 days): 10,000-20,000 fold | mortality between the 13-week and 26-week sacrifices (rats): no mortalities at any dose level | incidence of emesis (at least one episode) (minipigs [2]; both, minipig, in vivo, 75 mg/kg, 14 days): 5 of 8 | NOAEL (minipigs [2]; minipigs, 2 weeks (14 days)): greater than or equal to 75 mg/kg | mortality and clinical observations between the 13-week and 26-week sacrifices (minipigs [3]): no mortalities attributed to test article or significant clinical observations | deaths and clinical observations (minipigs [4]): no deaths attributed to test article or significant clinical observations | increase of AUC(0-12) from Day 1 to Day 7 (healthy volunteers [5]; 50 mg Q12H): 40% | increase of Cmax from Day 1 to Day 7 (healthy volunteers [5]; 50 mg Q12H): 37% | CL/F (mean ± SD) (healthy volunteers [5]; 50 mg Q12H (Day 1), Fasted): 571 ± 107 mL/h | CL/F (mean ± SD) (healthy volunteers [5]; 50 mg Q12H (Day 7), Fasted): 585 ± 81.6 mL/h | increase of AUC(0-12) from Day 1 to Day 7 (healthy volunteers [5]; 100 mg Q12H): 38% | increase of Cmax from Day 1 to Day 7 (healthy volunteers [5]; 100 mg Q12H): 24% | CL/F (mean ± SD) (healthy volunteers [5]; 100 mg Q12H (Day 1), Fasted): 665 ± 107 mL/h | CL/F (mean ± SD) (healthy volunteers [5]; 100 mg Q12H (Day 7), Fasted): 684 ± 76.1 mL/h | AUC(0−12) (mean ± SD) (healthy volunteers [5]; Day 1, 50 mg oral dose, fasted): 1,035 ± 121 h · ng/mL | AUC(0−t) (mean ± SD) (healthy volunteers [5]; Day 1, 50 mg oral dose, fasted): 1,463 ± 280 h · ng/mL | AUC(inf) (mean ± SD) (healthy volunteers [5]; Day 1, 50 mg oral dose, fasted): 1,502 ± 280 h · ng/mL | CL/F (mean ± SD) (healthy volunteers [5]; Day 1, 50 mg oral dose, fasted): 34300 ± 6420 mL/h | λz (mean ± SD) (healthy volunteers [5]; Day 1, 50 mg oral dose, fasted): 0.1132 ± 0.0230 h⁻¹ | AUC(0−12) (mean ± SD) (healthy volunteers [5]; [9]): 1,776 ± 260 h · ng/mL | AUC(0−t) (mean ± SD) (healthy volunteers [5]; [9]): 2,545 ± 497 h · ng/mL | CL/F (mean ± SD) (healthy volunteers [5]; [9]): 39900 ± 6420 mL/h | λz (mean ± SD) (healthy volunteers [5]; [9]): 0.1073 ± 0.0161 h⁻¹ | AUC(0-12) (mean ± SD) (healthy volunteers [5]; [10]): 1,449 ± 221 h · ng/mL | CL/F (mean ± SD) (healthy volunteers [5]; [10]): 35100 ± 4900 mL/h | λz (mean ± SD) (healthy volunteers [5]; [10]): 0.1025 ± 0.0186 h⁻¹ | AUC(0-12) (mean ± SD) (healthy volunteers [5]; [11]): 2,465 ± 299 h · ng/mL | CL/F (mean ± SD) (healthy volunteers [5]; [11]): 41000 ± 4570 mL/h | λz (mean ± SD) (healthy volunteers [5]; [11]): 0.0894 ± 0.0117 h⁻¹ | projected steady-state exposure (AUC) (healthy volunteers [5]; humans, total daily dose 500 mg as 250 mg Q12H): approximately 7,000 h*ng/mL | safety and tolerability (healthy volunteers [5]; multiple oral doses of 50 and 100 mg twice daily): safe and well-tolerated | MTD at 4 days (in vivo [6]): 75 mg/kg | NOAEL at 4 days (in vivo [6]): 25 mg/kg | NOAEL at 14 days (in vivo [7]): 75 mg/kg | NOAEL at 3 months (in vivo [8]): 50 mg/kg | Cmax (clinical; oral, 50 mg): 191 ± 20.9 ng/mL | Tmax (clinical; oral, 50 mg): 1.75 h | Vd/F (clinical; oral, 50 mg): 346 ± 30.1 L | AUC(0-t) (clinical; oral, 50 mg, AUC(0-12) (mean ± SD), Day 7, 50 mg Q12H on Days 3 through 6 and a single dose on Day 7, fasted): 1450 ng·h/mL | AUC(0-t) (clinical; oral, 50 mg, mean exposure AUC(0-12) at Day 7, 50 mg Q12H): 1450 ng·h/mL | Cmax (clinical; oral, 100 mg): 306 ± 55 ng/mL | Tmax (clinical; oral, 100 mg): 2 h | AUC(0-t) (clinical; oral, 100 mg, AUC(0-12) (mean ± SD), Day 7, 100 mg Q12H on Days 3 through 6 and a single dose on Day 7, fasted): 2460 ng·h/mL | AUC(0-t) (clinical; oral, 100 mg, mean exposure AUC(0-12) at Day 7, 100 mg Q12H): 2460 ng·h/mL | AUC(0-inf) (clinical; po, 50 mg): 1500 ng·h/mL | Tmax (clinical; po, 50 mg): 1.83 h | Vd/F (clinical; po, 50 mg): 306 ± 45.8 L | AUC(0-t) (clinical; po, 50 mg, AUC(0−12) (mean ± SD), Day 1, 50 mg oral dose, fasted): 1040 ng·h/mL | AUC(0-t) (clinical; po, 50 mg, AUC(0−t) (mean ± SD), Day 1, 50 mg oral dose, fasted): 1460 ng·h/mL | AUC(0-inf) (clinical; po, 100 mg): 2570 ng·h/mL | Cmax (clinical; po, 100 mg): 248 ± 30.4 ng/mL | Tmax (clinical; po, 100 mg): 1.92 h | Vd/F (clinical; po, 100 mg): 373 ± 51 L | AUC(0-t) (clinical; po, 100 mg, AUC(0−12) (mean ± SD), Day 1, 100 mg oral dose, fasted): 1780 ng·h/mL | AUC(0-t) (clinical; po, 100 mg, AUC(0−t) (mean ± SD), Day 1, 100 mg oral dose, fasted): 2540 ng·h/mL

Source: patent US9849116B2 (KNOPP BIOSCIENCES LLC, priority 2008, dated 2017)
